Data taken from patent publication EP0251446B1, “Non-human Carbonyl hydrolase mutants, DNA sequences and vectors encoding same and hosts transformed with said vectors” (GENENCOR INTERNATIONAL, INC., priority 1986, dated 1988).
Positions count from the first letter of the chain named. *1 amine or outer side, *2 acyl side, *3 side chain or, on linkers, in order; H or OH if unused. Where a SMILES comes first, the peptide text is derived from it. The star is where a group is joined. pNA = O=[N+]([O-])c1ccc(N*)cc1; Suc = O=C(CCC(=O)[*:2])[*:1]

How the values were obtained:
Assay type in all cases: biochemical
[1] = biological target: T1, B. amyloliquefaciens subtilisin, wild type (WT, Gly166) (Bacillus amyloliquefaciens, UniProt P00782); assay: Kinetics of hydrolysis of succinyl-Ala-Ala-Pro-X-p-nitroanilide substrates (progress curve analysis)
T1 construct: at various amino acid residues within the mature form of the subtilisin molecule; made in house; host or cells: Bacillus subtilis (secreted, culture supernatant)
T1 sequence (P00782 108-382): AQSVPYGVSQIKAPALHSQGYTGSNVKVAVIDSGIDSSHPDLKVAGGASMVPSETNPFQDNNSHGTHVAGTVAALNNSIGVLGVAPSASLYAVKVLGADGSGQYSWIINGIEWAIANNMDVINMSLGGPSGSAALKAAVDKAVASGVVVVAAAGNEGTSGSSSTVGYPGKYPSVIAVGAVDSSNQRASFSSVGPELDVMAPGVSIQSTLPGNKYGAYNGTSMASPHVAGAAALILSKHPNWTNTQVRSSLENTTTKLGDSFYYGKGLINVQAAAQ
From the text: A change in substrate specificity is defined as a difference between the kcat/Km ratio of the precursor carbonyl hydrolase and that of the hydrolase mutant. The kcat/Km ratio is a measure of catalytic efficienty. Carbonyl hydrolase mutants with increased or diminished kcat/Km ratios are described in the examples. Generally, the objective will be to secure a mutant having a greater (numerically large) kcat/Km ratio for a given substrate, thereby enabling the use of the enzyme to more efficiently act on a target substrate. A substantial change in kcat/Km ratio is preferably at least 2-fold increase or decrease. However, smaller increases or decreases in the ratio (e.g., at least 1.5-fold) are also considered substantial. An increase in kcat/Km ratio for one substrate may be accompanied by a reduction in kcat/Km ratio for another substrate. […] Km and kcat are measured in accord with known procedures, as described in EPO Publication No. 0130756 or as described herein.
(§1) Wild-type subtilisin was purified from B. subtilis culture supernatants expressing the B. amyloliquefaciens subtilisin gene (Wells, J.A., et al. (1983) Nucleic Acids Res. 11, 7911-7925) as previously described (Estell, D.A., et al. (1985) J. Biol. Chem. 260, 6518-6521). Details of the synthesis of tetrapeptide substrates having the form succinyl-L-AlaL-AlaL-ProL-[X]-p-nitroanilide (where X is the P1 amino acid) are described by DelMar, E.G., et al. (1979) Anal. Biochem. 99, 316-320. Kinetic parameters, Km(M) and kcat-(s-^1) were measured using a modified progress curve analysis (Estell, D.A., et al. (1985) J. Biol. Chem. 260, 6518-6521). Briefly, plots of rate versus product concentration were fit to the differential form of the rate equation using a non-linear regression algorithm. Errors in kcat and Km for all values reported are less than five percent. The various substrates in Table VIII are ranged in order of decreasing hydrophobicity. Nozaki, Y. (1971), J. Biol. Chem. 246, 2211-2217; Tanford C. (1978) Science 200, 1012).

[2] = biological target: T2, B. amyloliquefaciens subtilisin deletion mutant S153/S156/A158/G159/S160/Δ161-164/I165/S166/A169/R170 (Bacillus amyloliquefaciens, UniProt P00782, A260S/DEL268-271/E263S/G267S/G273S/G276A/K277R/S266G/T265A/V272I); assay: Kinetics of p-nitroanilide substrate hydrolysis, deletion mutant; conditions: Table V; substrate not given; method b166 gives kcat in s-1
T2 construct: made in house
T2 sequence (P00782 with tags, fused parts or gaps A260S/E263S/DEL265-265/S266A/S269I/DEL271-273/G276A/K277R): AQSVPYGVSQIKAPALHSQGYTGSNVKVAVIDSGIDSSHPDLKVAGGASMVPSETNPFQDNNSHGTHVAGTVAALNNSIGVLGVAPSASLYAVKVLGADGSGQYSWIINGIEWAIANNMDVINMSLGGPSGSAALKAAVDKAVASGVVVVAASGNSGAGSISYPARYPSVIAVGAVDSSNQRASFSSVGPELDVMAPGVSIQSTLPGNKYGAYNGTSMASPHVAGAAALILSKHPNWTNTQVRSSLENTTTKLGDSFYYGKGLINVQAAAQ
From the text: The effect of deletion of residues 161 through 164 has been shown by comparing the activity of the wild type (WT) enzyme with a mutant enzyme containing this deletion as well as multiple substitutions (i.e., S153/S156/A158/G159/S160/0161-164/1165/S166/A169/R170). This produced the following results:
as §1

[3] = biological target: T3, B. amyloliquefaciens subtilisin variant L217 (Tyr217 to Leu) (Bacillus amyloliquefaciens, UniProt P00782, Y324L); assay: Kinetics of p-nitroanilide substrate hydrolysis, L217; conditions: substrate sAAPFpNa
T3 construct: made in house
T3 sequence (P00782 108-382 Y324L): T1 sequence (P00782 108-382) with Y217L
From the text: as §1
Tyr217 has been substituted by all other 19 amino acids. Cassette mutagenesis as described in EPO publication No. 0130756 was used according to the protocol of Figure 22. The EcoRV restriction site was used for restriction-purification of pA217.
Since this position is involved in substrate binding, mutations here effect kinetic parameters of the enzyme. […]

## C[C@H](NC(=O)CCC(=O)O)C(=O)N[C@@H](C)C(=O)N1CCC[C@H]1C(=O)N[C@@H](Cc1ccccc1)C(=O)Nc1ccc([N+](=O)[O-])cc1 [sAAPFpNa, succinyl-L-AlaL-AlaL-ProL-Phep-nitroanilide, reference compound] (Suc-AAPF-pNA)
[1]; Table V, substrate not given, method b166 gives kcat in s-1
  kcat: 50
[1]; Table XIX, WT
  kcat: 50 s-^1
[2]
  kcat: 8
[3]
  kcat: 277 5'
